# US20050119304A1, “Urea derivatives” (priority 2001, published 2005)
# Read-outs that look alike come from different tables or passages of the source.
# Assays:
# human VR1 = biological target: T1, human VR1 (Homo sapiens, UniProt Q8NER1); experiment: Capsaicin-induced Ca2+ influx in the human VR1-transfected CHO cell line (Assay 1); type: cell-based
# T1 construct: The cloned hVR1 cDNA was constructed with pcDNA3 vector and transfected into a CHOluc9aeq cell line; expressed in transfected cells
# Source text: [Measurement of Capsaicin-Induced Ca^2+ Influx in the Human VR1-Transfected CHO Cell Line] (Assay 1)
# (1) Establishment of the Human VR1-CHOluc9aeq Cell Line
# Human vanilloid receptor (hVR1) cDNA was cloned from libraries of axotomized dorsal root ganglia (WO2000/29577). The cloned hVR1 cDNA was constructed with pcDNA3 vector and transfected into a CHOluc9aeq cell line. The cell line contains aequorin and CRE-luciferase reporter genes as read-out signals. The transfectants were cloned by limiting dilution in selection medium (DMEM/F12. medium (Gibco BRL) supplemented with 10% FCS, 1.4 mM Sodium pyruvate, 20 mM HEPES, 0.15% Sodium bicarbonate, 100 U/ml penicillin, 100 μg/ml strept mycin, 2 mM glutamine, non-essential amino acids and 2 mg/ml G418). Ca^2+ influx was examined in the capsaicin-stimulated clones. A high responder clone was selected and used for further experiments in the project. The human VR1-CHOluc9aeq cells were maintained in the selection medium and passaged every 3-4 days at 1-2.5×10^5 cells/flask ([…]).
# (2) Measurement of Ca^2+ Influx Using FDSS-3000
# Human VR1-CHOluc9aeq cells were suspended in a culture medium which is the same as the selection medium except for G418 and seeded at a density of 1,000 cells per well into 384-well plates (black walled clear-base/Nalge Nunc International). Following the culture for 48 hrs the medium was changed to 2 μM Fluo-3 AM (Molecular Probes) and 0.02% Puronic F-127 in assay buffer (Hank's balanced salt solution (HBSS), 17 mM HEPES (pH7.4), 1 mM Probenecid, 0.1% BSA) and the cells were incubated for 60 min at 25° C. After washing twice with assay buffer the cells were incubated with a test compound or vehicle for 20 min at 25° C. Mobilization of cytoplasmic Ca^2+ was measured by FDSS-3000 (λex=488 nm, λem=540 nm/Hamamatsu Photonics) for 60 sec after the stimulation with 10 nM capsaicin. Integral R was calculated and compared with controls.
# The data corresponds to the compounds as yielded by solid phase synthesis and thus to levels of purity of about 40 to 90%.
# T1 sequence (Q8NER1 whole entry): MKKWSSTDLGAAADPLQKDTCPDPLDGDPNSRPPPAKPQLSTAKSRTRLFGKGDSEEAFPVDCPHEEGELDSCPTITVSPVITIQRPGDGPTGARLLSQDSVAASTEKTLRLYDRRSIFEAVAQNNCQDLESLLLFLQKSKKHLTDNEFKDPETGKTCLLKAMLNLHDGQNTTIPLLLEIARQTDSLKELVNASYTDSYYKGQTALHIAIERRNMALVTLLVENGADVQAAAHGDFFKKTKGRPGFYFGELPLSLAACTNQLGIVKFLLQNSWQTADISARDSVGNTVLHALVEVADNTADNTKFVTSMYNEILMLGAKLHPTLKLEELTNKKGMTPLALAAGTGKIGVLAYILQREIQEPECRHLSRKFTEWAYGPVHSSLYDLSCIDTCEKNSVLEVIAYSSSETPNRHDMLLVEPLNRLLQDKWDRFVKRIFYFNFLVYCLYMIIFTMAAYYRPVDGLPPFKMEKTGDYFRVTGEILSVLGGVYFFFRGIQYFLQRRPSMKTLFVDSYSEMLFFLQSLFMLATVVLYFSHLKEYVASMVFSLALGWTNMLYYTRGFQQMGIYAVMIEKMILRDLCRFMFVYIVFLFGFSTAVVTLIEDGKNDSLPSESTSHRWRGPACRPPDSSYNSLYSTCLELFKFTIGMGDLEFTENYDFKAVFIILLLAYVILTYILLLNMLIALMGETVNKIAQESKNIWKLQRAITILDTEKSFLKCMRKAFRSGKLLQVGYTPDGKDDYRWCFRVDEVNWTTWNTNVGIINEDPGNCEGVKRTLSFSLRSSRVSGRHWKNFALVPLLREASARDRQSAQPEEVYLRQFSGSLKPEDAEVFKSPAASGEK
Compound,melting point [°C],IC50 (human VR1; read-out: hVR1 class) [nM],IC50 (human VR1; read-out: Activity grade) [nM]
Cc1nc2cc(NC(=O)Nc3ccc(C)c(Cl)c3)ccc2[nH]1 [Example 51],200 to 204,500 to 1000,–
O=C(Nc1ccc(Cl)c(C(F)(F)F)c1)Nc1cccc2[nH]nnc12 [Example 4],232 to 235,100 to 500,–
Cc1nc2cc(NC(=O)Nc3ccc(F)cc3)ccc2s1 [Example 22],241 to 242,< 100,–
COc1cccc(NC(=O)Nc2cccc3[nH]ccc23)c1 [Example 36],219 to 221,100 to 500,–
Cc1nc2cc(NC(=O)Nc3ccc(Oc4ccccc4)cc3)ccc2[nH]1 [Example 49],243 to 245,500 to 1000,–
O=C(Nc1cccc(C(F)(F)F)c1)Nc1cccc2[nH]ccc12 [Example 41],211 to 213,< 100,–
COc1cccc(NC(=O)Nc2ccc3[nH]ccc3c2)c1 [Example 73],227 to 229,500 to 1000,–
Cc1nc2ccc(NC(=O)Nc3ccc(Cl)c(C(F)(F)F)c3)cc2s1 [Example 15],234 to 235,100 to 500,–
O=C(Nc1ccc(Oc2ccccc2)cc1)Nc1ccc2[nH]c(C(F)(F)F)nc2c1 [Example 75],239 to 241,500 to 1000,–
O=C(Nc1ccc(Oc2ccccc2)cc1)Nc1cccc2[nH]ccc12 [Example 37],212 to 214,100 to 500,–
O=C(NCc1ccc(Br)cc1)Nc1cccc2cc[nH]c12 [Example 11],205 to 208,< 100,–
CSc1ccc(NC(=O)Nc2cccc3[nH]ccc23)cc1 [Example 82],228 to 231,500 to 1000,–
CC(=O)c1cccc(NC(=O)Nc2cccc3[nH]ccc23)c1 [Example 83],205 to 207,500 to 1000,–
O=C(Nc1ccc(Oc2ccccc2)cc1)Nc1cccc2cc[nH]c12 [Example 12],216 to 218,100 to 500,–
O=C(Nc1ccc2c(c1)C(=O)OC2)Nc1ccc(Cl)c(C(F)(F)F)c1 [Example 17],> 250,100 to 500,–
COc1ccc(CNC(=O)Nc2cccc3[nH]ccc23)cc1 [Example 102],201 to 202,500 to 1000,–
O=C(Nc1ccc(F)cc1)Nc1ccc2c(c1)S(=O)(=O)C=C2 [Example 43],242 to 243,500 to 1000,–
O=C(Nc1ccc(Br)cc1)Nc1ccc2[nH]ccc2c1 [Example 74],> 250,500 to 1000,–
O=C(Nc1ccc(Cl)c(Cl)c1)Nc1ccc2[nH]c(C(F)(F)F)nc2c1 [Example 81],240 to 242,500 to 1000,–
O=C(Nc1ccc(F)cc1)Nc1ccc2[nH]c(C(F)(F)F)nc2c1 [Example 78],242 to 243,500 to 1000,–
COc1ccccc1NC(=O)Nc1cccc2[nH]ccc12 [Example 84],208 to 209,500 to 1000,–
O=C(Nc1ccc(Cl)c(C(F)(F)F)c1)Nc1ccc2[nH]c(=S)sc2c1 [Example 18],> 250,500 to 1000,–

Compound,melting point [°C],IC50 (human VR1; read-out: hVR1 class) [nM],IC50 (human VR1; read-out: Activity grade) [nM]
CC(C)c1ccc(NC(=O)Nc2cccc3[nH]ccc23)cc1 [Example 66],222 to 224,< 100,–
Cc1nc2cc(NC(=O)Nc3ccc(C(C)C)cc3)ccc2s1 [Example 39],208 to 210,< 100,–
"O=C(Nc1ccc(Cl)c(C(F)(F)F)c1)Nc1ccc2ncsc2c1 [Example 1, N-(1,3-benzothiazol-6-yl)-N′-[4-chloro-3-(trifluoromethyl)phenyl]urea]",225 to 228,–,< 100
O=C(Nc1ccccc1Cl)Nc1cccc2[nH]ccc12 [Example 95],244 to 246,100 to 500,–
O=C(Nc1ccc(Oc2ccccc2)cc1)Nc1ccc2[nH]cnc2c1 [Example 58],235 to 237,100 to 500,–
O=C(Nc1ccc(F)cc1F)Nc1cccc2[nH]ccc12 [Example 64],247 to 248,500 to 1000,–
O=C(Nc1ccc(Br)cc1)Nc1ccc2[nH]c(C(F)(F)F)nc2c1 [Example 80],> 250,500 to 1000,–
CSc1cccc(NC(=O)Nc2ccc3sc(C)nc3c2)c1 [Example 21],225 to 227,100 to 500,–
O=C(Cc1ccc(Cl)c(C(F)(F)F)c1)Nc1ccc2cn[nH]c2c1 [Example 19],> 250,500 to 1000,–
O=C(Nc1ccc(C(F)(F)F)cc1)Nc1cccc2[nH]ccc12 [Example 92],242 to 243,100 to 500,–
COc1ccc(NC(=O)Nc2cccc3[nH]ccc23)cc1 [Example 61],230 to 232,500 to 1000,–
O=C(Nc1ccc(F)c([N+](=O)[O-])c1)Nc1cccc2[nH]ccc12 [Example 98],248 to 251,100 to 500,–
O=C(Nc1ccc(Oc2ccccc2)cc1)Nc1ccc2[nH]ccc2c1 [Example 69],231 to 233,100 to 500,–
Cc1nc2cc(NC(=O)Nc3ccc(Cl)c(C(F)(F)F)c3)ccc2[nH]1 [Example 48],162 to 166,500 to 1000,–
O=C(Nc1ccc(Cl)c(C(F)(F)F)c1)Nc1ccc2[nH]ncc2c1 [Example 3],> 250,< 100,–
Cc1nc2cc(NC(=O)Nc3ccc(Br)cc3)ccc2[nH]1 [Example 52],> 250,500 to 1000,–
COc1cccc(NC(=O)Nc2ccc3sc(C)nc3c2)c1 [Example 24],199 to 201,100 to 500,–
CSc1cccc(NC(=O)Nc2ccc3[nH]c(C(F)(F)F)nc3c2)c1 [Example 77],226 to 228,500 to 1000,–
O=C(Nc1ccc(Cl)c(C(F)(F)F)c1)Nc1ccc2[nH]nnc2c1 [Example 10],> 250,100 to 500,–
O=C(Nc1ccc(Cl)cc1)Nc1cccc2[nH]ccc12 [Example 91],247 to 248,100 to 500,–
COc1cccc(NC(=O)Nc2ccc3[nH]c(C(F)(F)F)nc3c2)c1 [Example 79],233 to 237,500 to 1000,–
Cc1nc2cc(NC(=O)Nc3ccc(Cl)c(C(F)(F)F)c3)ccc2s1 [Example 16],152 to 155,< 100,–
